From the METLIN SMRT retention time set (Domingo-Almenara et al. 2019)

Test: gradient 5% acetonitrile 3 min, to 50% in 2 min, to 85% in 15 min, held 3 min, 100 µL/min
Conditions: column: Zorbax Extend-C18 2.1 x 50 mm; eluents: water / acetonitrile, 0.1% formic acid
Summary of the method: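 Pure standards were run in mixtures of ~100 molecules by HPLC coupled to a quadrupole time-of-flight mass spectrometer. The column was a Zorbax Extend-C18 (2.1 × 50 mm, 1.8 μm) at 100 μL/min, with water and acetonitrile each containing 0.1% formic acid, in positive and negative ionization mode. Dead and dwell volumes were 40 μL and 900 μL. Retention time was taken from computationally picked adduct peaks, each manually inspected, with data collected over 3 months.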

SMILES | RP-LC retention time
Cc1cc(NC(=O)c2c(O)c3cccnc3n(-c3ccc(F)cc3)c2=O)ccc1F | 1250 s
CCn1cc(-c2nc(CC(=O)Nc3cc(F)ccc3F)cs2)c2cccnc21 | 1020 s
COc1ccc(-c2ncc3c(n2)CCN(S(=O)(=O)c2ccc(F)c(Cl)c2)C3)cc1 | 1130 s
CCc1nnc(-c2cn(CC(=O)Nc3ccc(F)c(F)c3)c3ccccc23)o1 | 888 s
CCCN1C(=O)COc2ccc(-c3noc(CCc4c[nH]c5ccccc45)n3)cc21 | 1110 s
CCN(CC)S(=O)(=O)c1ccc(Cl)c(-c2nnc(-c3ccccc3)o2)c1 | 1120 s
Cc1ccccc1NC(=O)Nc1ccc2nnc(C)n2c1 | 662 s
Cc1noc(-c2ccc(=O)n(Cc3ccc(F)cc3)n2)n1 | 807 s
CC(C)N(CC[C@H](c1ccccc1)c1cc(CO)ccc1O)C(C)C | 678 s
O=C(NCCOc1cccc(C(F)(F)F)c1)c1ccccc1Cl | 907 s
CCOC(=O)CCNC(=O)NCc1nnnn1-c1ccc(OCC)cc1 | 675 s
CCc1nc2ccccc2c(=O)n1Cc1noc(/C=C/c2ccc(OC)cc2)n1 | 1000 s
O=C(Nc1cccc(F)c1)c1n[nH]nc1Nc1cccc(F)c1 | 1050 s
CCC(C(=O)Nc1nc2ccccc2[nH]1)n1cnc2ccccc2c1=O (stereo not given) | 652 s
CCOc1ccc(C2Cn3nnc(-c4nc(-c5ccccc5OCC)no4)c3CO2)cc1 (stereo not given) | 1200 s
COc1ccc(-c2nc3c4cnn(-c5ccccc5Cl)c4ncn3n2)cc1OC | 845 s
CC(C)N1C(=O)c2cccnc2Sc2cc(NC(=O)c3cc(Cl)ccc3F)ccc21 | 973 s
CCN1CCCn2cc(S(=O)(=O)N(C)c3ccc(C)cc3)cc2C1=O | 756 s
COc1cc(C(=O)Nc2ccc(-c3cn4ccc(C)nc4n3)cc2)cc(OC)c1OC | 634 s
COC(=O)c1ccc(NC(=O)CSc2nnc(-c3cccs3)o2)cc1 | 648 s
COCC(=O)Nc1ccccc1NC(=O)c1ccco1 | 618 s
Cc1nc(-c2cnccn2)n(CC(=O)Nc2ccc(F)cc2)c(=O)c1C | 709 s
CC(C)OC(=O)COc1cc(O)c2c(=O)cc(-c3ccccc3)oc2c1 | 1170 s
Cn1cc(-c2ccncc2)cc1C(=O)NCc1ccc(Br)cc1 | 662 s
CC(C)(C)CN(C(=O)c1ccc(F)cc1)c1ccncc1 | 640 s
Cc1cc(Cl)ccc1S(=O)(=O)N1CCCC1c1nc(-c2cccc(F)c2)no1 (stereo not given) | 1220 s

SMILES | RP-LC retention time
CCNS(=O)(=O)c1cccc(-c2nnc(-c3ccc(C)cc3)o2)c1 | 922 s
Cc1c(C(=O)NCC(C)C)c(C)n2cnn(CC(=O)NCCc3ccccc3)c(=O)c12 | 743 s
Cc1ccc(NC(=O)N2c3ccccc3CC2c2nc(C3CC3)no2)c(C)c1 (stereo not given) | 1080 s
CNC(=O)c1cc2c(=O)n(CC(C)C)c3ccccc3n2n1 | 793 s
O=C(Cc1ccc(F)cc1)NCC#CCN1CCc2ccccc2C1 | 565 s
Cc1nccn1-c1ccc(=O)n(CCNC(=O)Cn2nc(-c3ccc(F)cc3)ccc2=O)n1 | 780 s
Cc1ccn2cc(-c3ccc(NS(=O)(=O)c4ccccc4Cl)cc3)nc2n1 | 642 s
Cc1ccc(C)c(NC(=O)Cn2cnc3c(sc4nc(-c5ccccc5)ccc43)c2=O)c1 | 1050 s
CC(C)(C)c1cc(C(=O)NCc2cccnc2)nc2ccnn12 | 657 s
O=S(=O)(c1cccn2c(SCc3cccc(F)c3)nnc12)N1CCc2ccccc2C1 | 959 s
CC(NCC(O)COc1c(F)cc(Br)cc1F)c1ccccc1 (stereo not given) | 618 s
Cc1cc2nn(CC(=O)NCc3ccccc3)c(=O)n2c(-c2ccccc2)n1 | 753 s
Cc1cccc(-c2nnc(-c3nc(NC4CCS(=O)(=O)C4)c4ccccc4n3)o2)c1 (stereo not given) | 821 s
COc1ccc(C(=O)Nc2nc(C)c3cc4c(cc3n2)OCO4)cc1 | 692 s
CN1CC[C@@H]2CN3CCc4cccc(c43)[C@@H]2C1 | 644 s
CC(C)(C)n1nnnc1C1CC2(CCOCC2)C(=O)N1Cc1cc(F)ccc1F (stereo not given) | 793 s
COc1ccc(-c2c(C)noc2NC(C)=O)cc1S(=O)(=O)N1CC=C(c2ccccc2)CC1 | 879 s
O=C(CCc1conc1-c1ccc(F)cc1)NCc1ccccc1 | 865 s
CCOc1ccc(NC(=O)Cn2c(C)nc3onc(C)c3c2=O)cc1 | 755 s
CCOc1ccc(-n2c(=O)c3sccc3n(Cc3nc(-c4ccc(Cl)c(F)c4)no3)c2=O)cc1 | 1140 s
CCOCCCNC(=O)N1[C@H]2CC[C@@H]1c1cnc(-c3ccc(F)cc3)nc1C2 | 800 s
O=S(=O)(c1ccc(C(F)(F)F)cc1)N1CC(c2nc(-c3ccncc3)no2)C1 | 888 s
CN(CCOC(=O)c1cccs1)Cc1ccccc1 | 623 s
Cc1cc2nn(CC(=O)Nc3ccc(C(C)C)cc3)c(=O)n2c(-c2ccccc2)n1 | 862 s
COc1ncccc1CNC(=O)c1cccs1 | 694 s

Further lines, results first:

RP-LC retention time | SMILES
828 s | CC1=C(c2ccc(F)cc2)S(=O)(=O)N=C1N1CCCN(C(=O)C2CCCC2)CC1
769 s | CCc1ccc(C(=O)N2CCC3(C2)C(=O)Nc2ccccc23)cc1 (stereo not given)
706 s | CCc1nc(N2CCC(C(=O)NCc3ccc(OC)cc3OC)CC2)c2c(C)scc2n1
1050 s | Cc1ccc(C)c(Cn2nc3c(S(=O)(=O)N4CCCCCC4)cccn3c2=O)c1
820 s | Clc1cccc(-c2cc3c(N4CCN(Cc5ccc6c(c5)OCO6)CC4)nccn3n2)c1
651 s | CCOc1ccc(CCNC(=O)c2c(C)oc3c2C2=NCCN2C=N3)cc1OCC
655 s | CN(C)S(=O)(=O)c1ccc(-c2nnc(C(=O)NCCCN3CCCC3=O)o2)cc1
604 s | CC(=O)Nc1ccc(OCC(=O)NCc2ccc(N3CCOCC3)cc2)nc1
623 s | Cc1cc(N2CCN(C(=O)c3cncc(Br)c3)CC2)nc2ccccc12
840 s | CS(=O)(=O)NCC1CCC(C(=O)Nc2ccc3c(c2)Cc2ccccc2-3)CC1 (stereo not given)
788 s | CCc1ccc(C2=C(C)C(N3CCCN(C(=O)c4ccccn4)CC3)=NS2(=O)=O)cc1
574 s | CN1CCN(Cc2nc3cc(NC(=O)C4CCCCC4)ccc3n2C)CC1
674 s | CC(C)c1c(C2CCN(C(=O)c3ccoc3)CC2)noc1N
785 s | COCCCNC(=O)N1CCCC1c1nc(-c2ccccc2C)no1 (stereo not given)
1120 s | O=C(c1sc2ncccc2c1-n1cccc1)N1CCN(c2ccccc2Cl)CC1
995 s | CCOC(=O)c1ccccc1NC(=O)N1CCN(c2ccc(=O)n(-c3ccccc3)n2)CC1
698 s | CCc1ccccc1NC(=O)C1CC(=O)N(c2ccc3c(c2)CCN3C(C)=O)C1 (stereo not given)
808 s | O=C(c1cccs1)N1CCN(c2[nH]ncc2-c2ccccc2)CC1
745 s | O=C(Nc1nccs1)C1CC(=O)N(CCc2c[nH]c3ccc(Cl)cc23)C1 (stereo not given)
651 s | O=C(NC1CCCCC1)C1(CCO)CC12CCN(c1ncccn1)CC2 (stereo not given)

RP-LC retention time | SMILES
861 s | O=C(NCc1cccs1)C1CCN(S(=O)(=O)c2cc(C(=O)N3CCCCCC3)cs2)CC1
734 s | Cc1csc(C(=O)NCC2CCN(C(=O)COc3ccccc3)CC2)c1
827 s | CCCN(CC1CCOC1)C(=O)Nc1cccc(Cl)c1 (stereo not given)
660 s | CCN1CCn2c(nc3cc(C(=O)NCc4ccc5c(c4)OCO5)ccc32)C1=O
858 s | Cc1ccc(C)c(N2CCN(c3ccnc(SCC(=O)Nc4ccc5c(c4)OCO5)n3)CC2)c1
638 s | CSc1ccccc1NC(=O)c1cn2c(n1)CCCC2
945 s | CC(C)n1cc(C2=CCN(C(=O)NC3CCCCC3)CC2)c2cccnc21
618 s | O=C(CCc1nnn2c1CN(C(=O)Nc1ccccc1F)CC2)NC1CC1
754 s | CCNC(=O)Nc1ccc2c(c1)CN(S(=O)(=O)Cc1ccccc1)CCO2
1010 s | Cc1csc(-c2cc(S(=O)(=O)NC3CCCCC3)cn2CC(=O)N2CCCCC2)n1
919 s | O=C(Cc1csc(Nc2ccc(Cl)cn2)n1)N1CCCc2ccccc21
681 s | Cc1cnc(CNC(=O)c2c(=O)c3ccc(N4CCCN(C)CC4)nc3n3c2sc2ccccc23)cn1
1090 s | CCCn1cc(C(=O)NCc2ccccc2F)c(S(=O)(=O)N2CCC(C)CC2)n1
898 s | O=C(Nc1ccc(C2(C(=O)NCc3ccc(F)cc3Cl)CCC2)cc1)C1CC1
598 s | CCOC(=O)c1nc(NCC2CCN(Cc3ccccc3F)CC2)c2ccccc2n1
613 s | CNC(=O)[C@@H]1C[C@@H](O)CN1C1CCN(C(=O)c2cc(C)oc2C)CC1
941 s | CN(c1nc(-c2ccc(Cl)cc2)nc2ccccc12)C1CCCCC1
670 s | O=C(NCc1ccc(F)c(Cl)c1)c1ccc2ncnc(N3CCCC3)c2c1
690 s | c1cc(-c2noc(-c3ccc4c(c3)OCO4)n2)cc(N2CCCC2)n1
